The target of test [1] is SARS-CoV-2 3CLpro (Severe acute respiratory syndrome coronavirus 2, UniProt P0DTD1). Briefly: biochemical.
In test [2] the target is HCoV-229E 3CLpro (Human coronavirus 229E, UniProt P0C6X1). Briefly: HCoV-229E 3CLpro inhibition assay (FRET). Type of test: biochemical.
In test [3] the target is MERS-CoV 3CLpro (Middle East respiratory syndrome-related coronavirus, UniProt K9N7C7). The experiment in a line: biochemical.
The target of test [4] is SARS-CoV 3CLpro (Severe acute respiratory syndrome coronavirus, UniProt P0C6X7). Briefly: biochemical.

Chain of HCoV-229E 3CLpro (P0C6X1 2966-3267): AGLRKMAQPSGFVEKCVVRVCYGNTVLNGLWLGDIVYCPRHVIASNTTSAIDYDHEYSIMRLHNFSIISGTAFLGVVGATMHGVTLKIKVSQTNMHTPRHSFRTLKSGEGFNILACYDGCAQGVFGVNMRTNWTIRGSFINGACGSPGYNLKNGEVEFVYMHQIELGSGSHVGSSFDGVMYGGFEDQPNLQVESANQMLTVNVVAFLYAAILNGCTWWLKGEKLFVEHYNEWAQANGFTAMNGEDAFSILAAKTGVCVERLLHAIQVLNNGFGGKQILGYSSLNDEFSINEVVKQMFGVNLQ
Chain of MERS-CoV 3CLpro (K9N7C7 3248-3553): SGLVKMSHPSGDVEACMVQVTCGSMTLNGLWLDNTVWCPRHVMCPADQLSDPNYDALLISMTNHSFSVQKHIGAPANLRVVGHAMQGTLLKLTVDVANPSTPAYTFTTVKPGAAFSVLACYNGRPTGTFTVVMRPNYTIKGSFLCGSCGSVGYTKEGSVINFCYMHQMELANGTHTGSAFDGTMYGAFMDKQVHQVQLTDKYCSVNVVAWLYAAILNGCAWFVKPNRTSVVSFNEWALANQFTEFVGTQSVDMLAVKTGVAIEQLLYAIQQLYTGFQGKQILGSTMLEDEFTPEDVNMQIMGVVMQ

With `CC[C@@H](C)[C@H](NC(=O)[C@H](C)F)C(=O)N1C[C@H]2[C@@H]([C@H]1C(=O)NN(C[C@@H]1CCNC1=O)C(=O)[C@H](F)Cl)C2(C)C` [Example 117, (2S)—N-[(1S,2R)-1-[(1R,2S,5S)-2-[[[(2R)-2-chloro-2-fluoro-acetyl]-[[(3S)-2-oxopyrrolidin-3-yl]methyl]amino]carbamoyl]-6,6-dimethyl-3-azabicyclo[3.1.0]hexane-3-carbonyl]-2-methyl-butyl]-2-fluoro-propanamide], the IC50 in test [1] is 11 nM; in test [2] it was 25 nM; in test [3], 86 nM; in test [4], 11 nM.

Regarding `CC(C)(C)[C@H](NC(=O)C1CC(F)(F)C1)C(=O)N1C[C@@H]2CCC[C@@H]2[C@H]1C(=O)NN(C[C@@H]1CCNC1=O)C(=O)[C@H](F)Cl` [Example 98, N-[(1S)-1-[(3S,3aS,6aR)-3-[[[(2R)-2-chloro-2-fluoro-acetyl]-[[(3S)-2-oxopyrrolidin-3-yl]methyl]amino]carbamoyl]-3,3a,4,5,6,6a-hexahydro-1H-cyclopenta[c]pyrrole-2-carbonyl]-2,2-dimethyl-propyl]-3,3-difluoro-cyclobutanecarboxamide], the IC50 in test [1] came to 9 nM; in test [2] it was 22 nM; in test [3] it was 59 nM; in test [4], 11 nM.

`CC(C)C[C@H](NC(=O)C(F)(F)F)C(=O)N1C[C@H]2[C@@H]([C@H]1C(=O)NN(C[C@@H]1CCNC1=O)C(=O)[C@H](F)Cl)C2(C)C` [Example 3, N-[(1S)-1-[(1R,2S,5S)-2-[[[(2R)-2-chloro-2-fluoro-acetyl]-[[(3S)-2-oxopyrrolidin-3-yl]methyl]amino]carbamoyl]-6,6-dimethyl-3-azabicyclo[3.1.0]hexane-3-carbonyl]-3-methyl-butyl]-2,2,2-trifluoro-acetamide]: the IC50 came out at 14 nM in test [1], 38 nM in test [2], 174 nM in test [3] and 20 nM in test [4].

For `CC(C)C(=O)N[C@H](C(=O)N1C[C@@H]2CCC[C@@H]2[C@H]1C(=O)NN(C[C@@H]1CCNC1=O)C(=O)[C@H](F)Cl)C(C)(C)C` [Example 33, N-[(1S)-1-[(3S,3aS,6aR)-3-[[[(2R)-2-chloro-2-fluoro-acetyl]-[[(3S)-2-oxopyrrolidin-3-yl]methyl]amino]carbamoyl]-3,3a,4,5,6,6a-hexahydro-1H-cyclopenta[c]pyrrole-2-carbonyl]-2,2-dimethyl-propyl]-2-methyl-propanamide], the 50% inhibitory concentration (IC50) in test [1] came to 7 nM; in test [2] it was 27 nM; in test [3], 79 nM; in test [4] it was 8 nM.

Regarding `CCC(C)(C)[C@H](NC(=O)C1(F)CC1)C(=O)N1C[C@H]2[C@@H]([C@H]1C(=O)NN(C[C@@H]1CCNC1=O)C(=O)[C@H](F)Cl)C2(C)C` [Example 143, N-[(1S)-1-[(1R,2S,5S)-2-[[[(2R)-2-chloro-2-fluoro-acetyl]-[[(3S)-2-oxopyrrolidin-3-yl]methyl]amino]carbamoyl]-6,6-dimethyl-3-azabicyclo[3.1.0]hexane-3-carbonyl]-2,2-dimethyl-butyl]-1-fluoro-cyclopropanecarboxamide], the concentration for half-maximal inhibition (IC50) turned out to be 8 nM in test [1], 28 nM in test [2], 86 nM in test [3] and 13 nM in test [4].

Regarding `CCC(CC)[C@H](NC(=O)C1CC1)C(=O)N1C[C@H]2[C@@H]([C@H]1C(=O)NN(C[C@@H]1CCNC1=O)C(=O)[C@H](F)Cl)C2(C)C` [Example 129, N-[(1S)-1-[(1R,2S,5S)-2-[[[(2R)-2-chloro-2-fluoro-acetyl]-[[(3S)-2-oxopyrrolidin-3-yl]methyl]amino]carbamoyl]-6,6-dimethyl-3-azabicyclo[3.1.0]hexane-3-carbonyl]-2-ethyl-butyl]cyclopropanecarboxamide], the IC50 is 11 nM in test [1], 29 nM in test [2], 104 nM in test [3] and 16 nM in test [4].

In the case of `CC(C)(C)[C@H](NC(=O)[C@H]1CC1(F)F)C(=O)N1C[C@@H]2CCC[C@@H]2[C@H]1C(=O)NN(C[C@@H]1CCNC1=O)C(=O)[C@H](F)Cl` [Example 100, (1R)—N-[(1S)-1-[(3S,3aS,6aR)-3-[[[(2R)-2-chloro-2-fluoro-acetyl]-[[(3S)-2-oxopyrrolidin-3-yl]methyl]amino]carbamoyl]-3,3a,4,5,6,6a-hexahydro-1H-cyclopenta[c]pyrrole-2-carbonyl]-2,2-dimethyl-propyl]-2,2-difluoro-cyclopropanecarboxamide], the IC50 turned out to be 8 nM in test [1], 32 nM in test [2], 77 nM in test [3] and 14 nM in test [4].

Turning to `CC[C@H](C)[C@H](NC(=O)C1(F)CC1)C(=O)N1C[C@H](C(F)(F)F)C[C@H]1C(=O)NN(C[C@@H]1CCNC1=O)C(=O)[C@@H](F)Cl` [Example 161, N-[(1S,2S)-1-[(2S,4R)-2-[[[(2S)-2-chloro-2-fluoro-acetyl]-[[(3S)-2-oxopyrrolidin-3-yl]methyl]amino]carbamoyl]-4-(trifluoromethyl)pyrrolidine-1-carbonyl]-2-methyl-butyl]-1-fluoro-cyclopropanecarboxamide], the half-inhibitory concentration (IC50) in test [1] amounted to 16 nM; in test [2], 99 nM; in test [3], 336 nM; in test [4] it was 27 nM.

As for `CC(C)(C)[C@H](NC(=O)C1(F)CC1)C(=O)N1C[C@H]2[C@@H]([C@H]1C(=O)NN(C[C@@H]1CCNC1=O)C(=O)[C@H](F)Cl)C2(C)C` [Example 83, N-[(1S)-1-[(1R,2S,5S)-2-[[[(2R)-2-chloro-2-fluoro-acetyl]-[[(3S)-2-oxopyrrolidin-3-yl]methyl]amino]carbamoyl]-6,6-dimethyl-3-azabicyclo[3.1.0]hexane-3-carbonyl]-2,2-dimethyl-propyl]-1-fluoro-cyclopropanecarboxamide], the IC50 in test [1] is 9 nM; in test [2], 31 nM; in test [3], 97 nM; in test [4], 10 nM.

Take `CCC(C)(C)[C@H](NC(=O)[C@@H](C)F)C(=O)N1C[C@H]2[C@@H]([C@H]1C(=O)NN(C[C@@H]1CCNC1=O)C(=O)[C@H](F)Cl)C2(C)C` [Example 141, (2R)—N-[(1S)-1-[(1R,2S,5S)-2-[[[(2R)-2-chloro-2-fluoro-acetyl]-[[(3S)-2-oxopyrrolidin-3-yl]methyl]amino]carbamoyl]-6,6-dimethyl-3-azabicyclo[3.1.0]hexane-3-carbonyl]-2,2-dimethyl-butyl]-2-fluoro-propanamide]: the IC50 in test [1] is 10 nM; in test [2], 35 nM; in test [3], 117 nM; in test [4], 15 nM.

Take `CC(C)(C)[C@H](NC(=O)C(F)(F)F)C(=O)N1C[C@H]2[C@@H]([C@H]1C(=O)NN(C[C@@H]1CCNC1=O)C(=O)[C@@H](F)Cl)C2(C)C` [Example 19, N-[(1S)-1-[(1R,2S,5S)-2-[[[(2S)-2-chloro-2-fluoro-acetyl]-[[(3S)-2-oxopyrrolidin-3-yl]methyl]amino]carbamoyl]-6,6-dimethyl-3-azabicyclo[3.1.0]hexane-3-carbonyl]-2,2-dimethyl-propyl]-2,2,2-trifluoro-acetamide]: the IC50 in test [1] was found to be 13 nM; in test [2], 27 nM; in test [3], 92 nM; in test [4] it was 15 nM.

As to `C[C@H](NC(=O)C(F)(F)F)C(=O)N1C[C@@H]2CCC[C@@H]2[C@H]1C(=O)NN(C[C@@H]1CCNC1=O)C(=O)[C@H](F)Cl` [Example 75, N-[(1S)-2-[(3S,3aS,6aR)-3-[[[(2R)-2-chloro-2-fluoro-acetyl]-[[(3S)-2-oxopyrrolidin-3-yl]methyl]amino]carbamoyl]-3,3a,4,5,6,6a-hexahydro-1H-cyclopenta[c]pyrrol-2-yl]-1-methyl-2-oxo-ethyl]-2,2,2-trifluoro-acetamide], the IC50 is 12 nM in test [1], 33 nM in test [2], 83 nM in test [3] and 12 nM in test [4].

Turning to `CC1(C)[C@@H]2[C@@H](C(=O)NN(C[C@@H]3CCNC3=O)C(=O)[C@H](F)Cl)N(C(=O)[C@@H](NC(=O)C(F)(F)F)c3ccccc3)C[C@@H]21` [Example 21, N-[(1S)-2-[(1R,2S,5S)-2-[[[(2R)-2-chloro-2-fluoro-acetyl]-[[(3S)-2-oxopyrrolidin-3-yl]methyl]amino]carbamoyl]-6,6-dimethyl-3-azabicyclo[3.1.0]hexan-3-yl]-2-oxo-1-phenyl-ethyl]-2,2,2-trifluoro-acetamide], the IC50 in test [1] worked out at 25 nM; in test [2], 34 nM; in test [3] it was 109 nM; in test [4], 17 nM.

With `CC(C)(C)[C@H](NC(=O)C(F)(F)F)C(=O)N1CCC(C)(C)[C@@H]1C(=O)NN(C[C@@H]1CCNC1=O)C(=O)[C@H](F)Cl` [Example 155b, N-[(1S)-1-[(2R)-2-[[[(2R)-2-chloro-2-fluoro-acetyl]-[[(3S)-2-oxopyrrolidin-3-yl]methyl]amino]carbamoyl]-3,3-dimethyl-pyrrolidine-1-carbonyl]-2,2-dimethyl-propyl]-2,2,2-trifluoro-acetamide], the IC50 was 1570 nM in test [1], above 10000 nM in test [2], above 10000 nM in test [3] and 2440 nM in test [4].

For the compound `CC(C)(C)[C@H](NC(=O)C(F)F)C(=O)N1C[C@@H]2CCC[C@@H]2[C@H]1C(=O)NN(C[C@@H]1CCNC1=O)C(=O)[C@H](F)Cl` [Example 28, N-[(1S)-1-[(3S,3aS,6aR)-3-[[[(2R)-2-chloro-2-fluoro-acetyl]-[[(3S)-2-oxopyrrolidin-3-yl]methyl]amino]carbamoyl]-3,3a,4,5,6,6a-hexahydro-1H-cyclopenta[c]pyrrole-2-carbonyl]-2,2-dimethyl-propyl]-2,2-difluoro-acetamide], the IC50 in test [1] was determined as 8 nM; in test [2], 396 nM; in test [3], 1020 nM; in test [4], 38 nM.

The values above are taken from patent US20250059171A1 (Hoffmann-La Roche Inc., priority 2021, published 2025).
